How the values were obtained:
Assay type in all cases: cell-based
[1] = test system: Escherichia coli; assay: Agar plate disc-diffusion, antibacterial inhibition zone; settings: nutrient agar, 37° C., 48 h, DMSO zone subtracted
Description: (§1) The agar plate disc-diffusion method was applied. Sterilized filter papers (6 mm in diameter) were wetted with 10 μL of a solution of 6′-(4-methoxyphenyl)-2′-ethoxy-3,4′-bipyridine-3′-carbonitrile (4) or 6′-(4-methoxyphenyl)-2′-methoxy-3,4′-bipyridine-3′-carbonitrile (5) to be tested, containing […] in DMSO, and the discs were allowed to air dry. The discs were then placed onto the surface of agar plates (nutrient agar for bacteria and Sabouraud's dextrose agar for fungi) seeded with the test organism. Each plate contained 15 mL of the agar medium, previously seeded with 0.2 mL of the broth culture of each organism pregrown for 18 hours. The plates were incubated at 37° C. for 48 h, and 72 h for fungi. The inhibition zones were measured in mm. Discs impregnated with DMSO were used as a control, and its inhibition zone was subtracted from the tested compound actual inhibition zone.
(§2) The results of the antimicrobial testing can be observed in Tables 1 and 2, below, using ciprofloxacin as a reference.

[2] = test system: Bacillus Cereus; assay: as above; settings: nutrient agar, 37° C., 48 h, DMSO zone subtracted
Description: as §1, §2

[3] = test system: Staphylococcus aureus; assay: as above; settings: nutrient agar, 37° C., 48 h, DMSO zone subtracted
Description: as §1, §2

[4] = test system: Pseudomonas aeruginosa; assay: as above; settings: nutrient agar, 37° C., 48 h, DMSO zone subtracted
Description: as §1, §2

[5] = test system: Chrysosporium keratinophilum; assay: Agar plate disc-diffusion, antifungal inhibition zone; settings: Sabouraud's dextrose agar, 37° C., 72 h, DMSO zone subtracted
Description: as §1, §2

[6] = test system: Aspergillus flavus; assay: as above; settings: Sabouraud's dextrose agar, 37° C., 72 h, DMSO zone subtracted
Description: as §1, §2

[7] = test system: different microbes; assay: Antimicrobial activity, overall statement on Tables 1 and 2; settings: summary of Tables 1 and 2, bacteria and fungi
Description: as §1
Their antibacterial activity was screened against gram positive bacteria namely Bacillus cereus and Staphylococcus aureus and gram-negative bacterial strains namely Pseudomonas aeruginosa and Escherichia coli, while their antifungal activity was screened against Aspergillus flavus and Chrysosporium keratinophilum.

[8] = A = concentration of comp. = 10,000 μL
[9] = B = concentration of comp. = 30.000 μL
[10] = C = concentration of comp. = 50,000 μL

## CCOc1nc(-c2ccc(OC)cc2)cc(-c2cccnc2)c1C#N [Compound 4, 6′-(4-methoxyphenyl)-2′-ethoxy-3,4′-bipyridine-3′-carbonitrile]
[1]; [8]
  inhibition zone: 26 mm
[1]; [9]
  inhibition zone: 36 mm
[1]; [10]
  inhibition zone: 49 mm
[2]; [8]
  inhibition zone: 19 mm
[2]; [9]
  inhibition zone: 25 mm
[2]; [10]
  inhibition zone: 32 mm
[3]; [8]
  inhibition zone: 17 mm
[3]; [9]
  inhibition zone: 21 mm
[3]; [10]
  inhibition zone: 31 mm
[4]; [8]
  inhibition zone: 25 mm
[4]; [9]
  inhibition zone: 28 mm
[4]; [10]
  inhibition zone: 41 mm
[5]; [8]
  inhibition zone: 25 mm
[5]; [9]
  inhibition zone: 28 mm
[5]; [10]
  inhibition zone: 46 mm
[6]; [8]
  inhibition zone: 23 mm
[6]; [9]
  inhibition zone: 27 mm
[6]; [10]
  inhibition zone: 38 mm
[7]
  antimicrobial activities (in words): high antimicrobial activities

## COc1ccc(-c2cc(-c3cccnc3)c(C#N)c(OC)n2)cc1 [Compound 5, 6′-(4-methoxyphenyl)-2′-methoxy-3,4′-bipyridine-3′-carbonitrile]
[1]; [8]
  inhibition zone: 27 mm
[1]; [9]
  inhibition zone: 37 mm
[1]; [10]
  inhibition zone: 50 mm
[2]; [8]
  inhibition zone: 23 mm
[2]; [9]
  inhibition zone: 25 mm
[2]; [10]
  inhibition zone: 37 mm
[3]; [8]
  inhibition zone: 19 mm
[3]; [9]
  inhibition zone: 27 mm
[3]; [10]
  inhibition zone: 32 mm
[4]; [8]
  inhibition zone: 23 mm
[4]; [9]
  inhibition zone: 31 mm
[4]; [10]
  inhibition zone: 39 mm
[5]; [8]
  inhibition zone: 27 mm
[5]; [9]
  inhibition zone: 28 mm
[5]; [10]
  inhibition zone: 49 mm
[6]; [8]
  inhibition zone: 24 mm
[6]; [9]
  inhibition zone: 26 mm
[6]; [10]
  inhibition zone: 39 mm
[7]
  antimicrobial activities (in words): high antimicrobial activities

## O=C(O)c1cn(C2CC2)c2cc(N3CCNCC3)c(F)cc2c1=O [Cip., ciprofloxacin, reference compound]
[1]; [8]
  inhibition zone: 30 mm
[1]; [9]
  inhibition zone: 39 mm
[1]; [10]
  inhibition zone: 60 mm
[2]; [8]
  inhibition zone: 29 mm
[2]; [9]
  inhibition zone: 30 mm
[2]; [10]
  inhibition zone: 42 mm
[3]; [8]
  inhibition zone: 43 mm
[3]; [9]
  inhibition zone: 44 mm
[3]; [10]
  inhibition zone: 53 mm
[4]; [8]
  inhibition zone: 29 mm
[4]; [9]
  inhibition zone: 30 mm
[4]; [10]
  inhibition zone: 53 mm
[5]; [8]
  inhibition zone: 29 mm
[5]; [9]
  inhibition zone: 30 mm
[5]; [10]
  inhibition zone: 53 mm
[6]; [8]
  inhibition zone: 29 mm
[6]; [9]
  inhibition zone: 30 mm
[6]; [10]
  inhibition zone: 42 mm

Reference: patent US12065424B1, “6′(4-methoxyphenyl)-2′-alkoxy-3,4′-bipyridine-3′-carbonitrile as antimicrobial compounds” (KING FAISAL UNIVERSITY, priority 2023, dated 2024)
